Our source for the IC50 and inhibition values is patent US20260008758A1, “LINEAR DIPEPTIDYL PEPTIDASE 1 INHIBITORS AND USES THEREOF” (Insmed Incorporated, priority 2024, published 2026).

For assay [1], the target named is T1, human DPP1 enzyme (Homo sapiens (Human), UniProt P53634). The assay can be described thus: Human DPP1 enzyme IC50 assay. Format: biochemical. Conditions: recombinant human DPP1, H-Gly-Arg-AMC substrate 400 μM. As to the method: Test articles were applied to activated human DPP1 enzyme in Assay Buffer (25 mM MES pH 6.0, 50 mM NaCl, 5 mM DTT) in a total reaction volume of 125 μL. 25 μL of compound in Assay Buffer plus 5% DMSO was first added to 50 μL of activated human DPP1 enzyme at a concentration of 1 ng/μL and allowed to pre-incubate for 10 minutes at 37° C. after which 50 μL of 1000 μM H-Gly-Arg-AMC substrate (Bachem; St. Torrance, CA) was added, giving final substrate concentration of 400 μM and a final DMSO concentration of 1%. Substrate cleavage was measured for 90 minutes at 37° C., with fluorescence at Excitation/Emission 350/450 nm measured every 5 minutes. DPP1 concentration was interpolated based on its activity relative to a standard curve of activated human recombinant DPP1 enzyme. IC50 values for each compound were calculated via the XLFit (IDBS Version 5.3.1.3) Add-On to Microsoft Excel using the four parameter fit equation y={A+[(B-A)]/[1+((C/x)^D)]}, which appears as equation number 205 (4 Parameter Logistic Model or Sigmoidal Dose-Response Model) in XLFit. Default constraints were used for each Parameter.

Assay [2] concerns the target T1, human DPP1 enzyme. The assay can be described thus: Human DPP1 enzyme single-point percent inhibition testing (HL-60 lysate, H-Gly-Arg-AMC substrate). Format: biochemical. The conditions noted are these: read-out: human DPP1 enzyme % inhibition @ 10 nM, 10 nM compound, 400 μM H-Gly-Arg-AMC, 10 min pre-incubation at 37° C. As to the method: A crude lysate of HL-60 cells (ATCC; Manassas, VA) was used as a source of human DPP1 enzyme in the assay. Lysate was prepared in 1% Triton X-100 in PBS at a concentration of 20,000 live cells per […] of lysis buffer and was centrifuged at 16,000 rcf for 10 minutes at 4° C., after which supernatant was collected and flash-frozen in liquid nitrogen. Test articles were applied to human DPP1 enzyme in Assay Buffer (25 mM MES pH 6.0, 50 mM NaCl, 5 mM DTT) in a total reaction volume of 125 μL. 25 μL of compound diluted to 50 nM in Assay Buffer plus 5% DMSO was first added to 50 μL of HL-60 lysate diluted to contain a DPP1 enzyme concentration of roughly 1 ng/μL and allowed to pre-incubate for 10 minutes at 37° C. after which 50 μL of 1000 μM H-Gly-Arg-AMC substrate (Bachem; St. Torrance, CA) was added, giving final compound concentration of 10 nM, a final substrate concentration of 400 μM and a final DMSO concentration of 1%. Substrate cleavage was measured for 90 minutes at 37° C., with fluorescence at Excitation/Emission 350/450 nm measured every 5 minutes. DPP1 concentration was interpolated based on its activity relative to a standard curve of activated human recombinant DPP1 enzyme. Percent inhibition at 10 nM was calculated for each test article based on remaining DPP1 activity compared to enzyme activity in wells that received only vehicle control.

In another assay the target is DPP1 in HL-60 cells (Homo sapiens (Human), UniProt P53634). The assay can be described thus: DPP1 cell single-point percent inhibition testing (HL-60 cells, H-Gly-Phe-AFC substrate). Format: cell-based. Conditions: read-out: DPP1 cell % inhibition @ 5 nM, 5 nM compound, 100 μM H-Gly-Phe-AFC, 60 min pre-incubation at 37° C. As to the method:
HL-60 cells (ATCC; Manassas, VA) were maintained in RPMI-1640 supplemented with 20% heat-inactivated FBS and 1× Antibiotic Antimycotic (Cytiva; Marlborough, MA). Media was changed every three to four days and cells were not allowed to exceed 1×10^6 cells per mL. Prior to assay, cells were collected by centrifugation at 500 rcf for 3 minutes, resuspended in RPMI (with no additional supplements) and counted. Cells were diluted in RPMI to a concentration of 5×10^5 live cells per mL and transferred to black 96-well plates for assay, 60 μL per well. Test articles were diluted to 25 nM in RPMI plus 0.5% DMSO, and 20 μL was added to each assay well. Compound was allowed to pre-incubate with cells with gentle shaking at 100 rpm for 60 minutes at 37° C. in a cell culture incubator maintained at 5% CO2, after which 20 μL of 500 μM H-Gly-Phe-AFC cell-permeable substrate (MP Biomedicals; Solon, OH) in RPMI was added to each well, giving final compound concentration of 5 nM, a final substrate concentration of 100 μM and a final DMSO concentration of 0.1%. Plates were returned to the incubator with shaking at 100 rpm for 30 minutes, after which fluorescence was measured at Excitation/Emission 400/505 nm. Percent Inhibition was calculated from RFU values by first subtracting background values (wells in which RPMI was substituted for cells) from each well, and then subtracting background-subtracted RFU derived from wells that received a final concentration of 10 μM brensocatib. This value represents the non-specific substrate cleavage from the HL-60 cells, and the remaining RFU should theoretically be solely the contribution of DPP1 enzyme activity. The final percent inhibition value was calculated for each test article based on remaining RFU compared to RFU from wells that received only vehicle control.

The structures appear in SMILES notation. Where only a bound is given, the exact number is not on record here.

DPP1 in HL-60 cells, sequence (P53634 25-134): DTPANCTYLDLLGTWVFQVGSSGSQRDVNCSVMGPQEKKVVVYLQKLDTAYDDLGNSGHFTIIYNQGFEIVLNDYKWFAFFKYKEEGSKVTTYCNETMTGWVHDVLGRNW
DPP1 in HL-60 cells, sequence (P53634 231-394): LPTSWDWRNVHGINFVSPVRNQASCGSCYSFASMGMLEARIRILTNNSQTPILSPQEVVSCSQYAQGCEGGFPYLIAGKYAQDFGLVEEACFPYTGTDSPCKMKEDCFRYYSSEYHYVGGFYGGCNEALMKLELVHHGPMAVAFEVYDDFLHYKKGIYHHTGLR
DPP1 in HL-60 cells, sequence (P53634 395-463): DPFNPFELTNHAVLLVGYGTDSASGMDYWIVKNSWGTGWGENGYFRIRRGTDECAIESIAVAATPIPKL
T1 sequence (P53634 25-134): as the sequence (P53634 25-134) above
T1 sequence (P53634 231-394): as the sequence (P53634 231-394) above
T1 sequence (P53634 395-463): as the sequence (P53634 395-463) above

Usually IC50 stands for the point on the concentration scale where inhibition reaches its midpoint. For `Cn1c(=O)oc2ccc(-c3ccc(C[C@@H](C#N)NC(=O)CC(N)c4cocn4)cc3)cc21` (stereo partly drawn) [Compound 229, 3-amino-N-[(1S)-1-cyano-2-[4-(3-methyl-2-oxo-1,3-benzoxazol-5-yl)phenyl]ethyl]-3-(1,3-oxazol-4-yl)propanamide], at human DPP1 enzyme [1], the IC50 is at least 15 nM.
Regarding `Cn1c(=O)oc2ccc(-c3ccc(C[C@@H](C#N)NC(=O)CC(N)Cc4cocn4)cc3)cc21` (stereo partly drawn) [Compound 230, 3-amino-N-[(1S)-1-cyano-2-[4-(3-methyl-2-oxo-1,3-benzoxazol-5-yl)phenyl]ethyl]-4-(1,3-oxazol-4-yl)butanamide], at human DPP1 enzyme [1], the IC50 is at least 15 nM.
Take `CN1CCN[C@@H](CC(=O)N[C@H](C#N)Cc2ccc(-c3ccc4oc(=O)n(C)c4c3)cc2)C1` [Compound 253, N-[(1S)-1-cyano-2-[4-(3-methyl-2-oxo-1,3-benzoxazol-5-yl)phenyl]ethyl]-2-(4-methylpiperazin-2-yl)acetamide]: on human DPP1 enzyme [1], the concentration for half-maximal inhibition (IC50) is at least 15 nM.
The same measure, in the same setting: the result for `CCN1C(=O)Cc2ccc(-c3ccc(C[C@@H](C#N)NC(=O)[C@](C)(N)C4CCCC4)cc3)cc21` [Compound 259B, (2R)-2-amino-N-[(1S)-1-cyano-2-[4-(1-ethyl-2-oxo-3H-indol-6-yl)phenyl]ethyl]-2-cyclopentylpropanamide] reads at least 15 nM.
Take `Cc1cn2cc(-c3ccc(C[C@@H](C#N)NC(=O)[C@](C)(N)C4CCC4)c(F)c3)cc2c(C)n1` [Compound 272A, (R)-2-amino-N—((S)-1-cyano-2-(4-(1,3-dimethylpyrrolo[1,2-a]pyrazin-7-yl)-2-fluorophenyl)ethyl)-2-cyclobutylpropanamide]: at human DPP1 enzyme [1], the 50% inhibitory concentration (IC50) is at least 15 nM.
For `CN(C)C[C@H](O)C(=O)N[C@@H](C#N)Cc1cc2c(cc1F)-c1ccc(C#N)cc1CO2` [Compound 277B, (2S)—N-[(1R)-1-cyano-2-{8-cyano-2-fluoro-6H-benzo[c]chromen-3-yl}ethyl]-3-(dimethylamino)-2-hydroxypropanamide], the IC50 on human DPP1 enzyme [1] is at least 15 nM.
The term inhibition denotes the drop in the measured response relative to a control, in per cent. On to `CO[C@@H](CN(C)C)C(=O)NC(C#N)Cc1cc2c(cc1F)-c1cc(C3COC3)c(F)cc1CO2` (stereo partly shown) [Compound 295], for which, at human DPP1 enzyme [2], the inhibition at 0.01 µM fell in the range of 40 to 66.7%. The inhibition at 0.005 µM on DPP1 in HL-60 cells is at most 76.5%.
Turning to `CO[C@@H](CN(C)C)C(=O)N[C@H](C#N)Cc1cc2c(cc1F)-c1ccc(C#N)cc1CO2` [Compound 296], at human DPP1 enzyme [2], the inhibition at 0.01 µM was at most 40%. For the same compound, the inhibition at 0.005 µM on DPP1 in HL-60 cells was at most 76.5%.
The like results for `CO[C@@H](CN(C)C)C(=O)NC(C#N)Cc1cc2c(cc1F)-c1cc3c(cc1CO2)oc(=O)n3C` (stereo partly shown) [Compound 297] were, in that order, at most 40% and at most 76.5%.
For the compound `CO[C@@H](CN(C)C)C(=O)NC(C#N)Cc1cc2c(cc1F)-c1cc(C#N)ccc1CO2` (stereo partly shown) [Compound 298], on human DPP1 enzyme [2], the inhibition at 0.01 µM is at most 40%. The inhibition at 0.005 µM on DPP1 in HL-60 cells is at most 76.5%.
Regarding `CO[C@@H](CN(C)C)C(=O)NC(C#N)Cc1cc2c(cc1F)-c1ccc3oc(=O)n(C)c3c1CO2` (stereo partly shown) [Compound 299], on human DPP1 enzyme [2], the inhibition at 0.01 µM was at most 40%. Moreover, at DPP1 in HL-60 cells, the inhibition at 0.005 µM is at most 76.5%.
As for `CO[C@@H](CN(C)C)C(=O)N[C@H](C#N)Cc1ccc(-c2ccc3c(c2)C2(CC3)CCN(C)CC2)cc1` [Compound 300], at human DPP1 enzyme [2], the inhibition at 0.01 µM was in the range of 40 to 66.7%. For the same compound, the inhibition at 0.005 µM at DPP1 in HL-60 cells is at most 76.5%.
On to `CO[C@@H](CN(C)C)C(=O)N[C@H](C#N)Cc1ccc(-c2ccc3c(c2)C2(CCCN(C)C2)C(=O)N3C)cc1` (stereo partly shown) [Compound 301], for which, at human DPP1 enzyme [2], the inhibition at 0.01 µM was at most 40%. Further, the inhibition at 0.005 µM at DPP1 in HL-60 cells is 76.5 to 93.9%.
`CO[C@@H](CN(C)C)C(=O)N[C@H](C#N)Cc1ccc(-c2ccc3oc(=O)n(CCN(C)C)c3c2)cc1` [Compound 302]: the inhibition at 0.01 µM on human DPP1 enzyme [2] is 40 to 66.7%. Besides, the inhibition at 0.005 µM at DPP1 in HL-60 cells is at most 76.5%.
For `CO[C@@H](CN(C)C)C(=O)N[C@H](C#N)Cc1ccc(-c2cc3c(C)nc(C)cn3c2)cc1` [Compound 303] the same measures were at most 40% and at most 76.5%.
In the case of `CO[C@@H](CN(C)C)C(=O)N[C@H](C#N)Cc1ccc(-c2ccc3c(c2)C2(CN(C)C2)OC3=O)cc1` [Compound 304], the inhibition at 0.01 µM at human DPP1 enzyme [2] is at most 40%. Besides, the inhibition at 0.005 µM on DPP1 in HL-60 cells was at most 76.5%.
The like results for `CCN1C(=O)Cc2ccc(-c3ccc(C[C@@H](C#N)NC(=O)[C@H](CN(C)C)OC)cc3)cc21` [Compound 305] were, in that order, at most 40% and at most 76.5%.
As for `CO[C@@H](CN(C)C)C(=O)N[C@H](C#N)Cc1ccc(-c2ccc3c(c2)C2(CCN(C)C2)OC3=O)cc1` (stereo partly shown) [Compound 306], the inhibition at 0.01 µM at human DPP1 enzyme [2] was at most 40%. In addition, the inhibition at 0.005 µM at DPP1 in HL-60 cells is at most 76.5%.
The like results for `CO[C@@H](CN(C)C)C(=O)N[C@H](C#N)Cc1ccc(-c2ccc3cnn(C4CCN(C)CC4)c3c2)cc1` [Compound 307] were, in that order, 40 to 66.7% and at most 76.5%.
Turning to `CO[C@@H](CN(C)C)C(=O)N[C@H](C#N)Cc1ccc(-c2ccc3c(c2)C2(CCN(C4COC4)CC2)OC3)cc1` [Compound 308], the inhibition at 0.01 µM on human DPP1 enzyme [2] was at most 40%. Moreover, at DPP1 in HL-60 cells, the inhibition at 0.005 µM was at most 76.5%.
Regarding `CO[C@@H](CN(C)C)C(=O)N[C@H](C#N)Cc1ccc(-c2ccc3oc(=O)n(CCN4CCOCC4)c3c2)cc1` [Compound 309], the inhibition at 0.01 µM at human DPP1 enzyme [2] is at most 40%. Also, the inhibition at 0.005 µM on DPP1 in HL-60 cells was at most 76.5%.
`CO[C@@H](CN(C)C)C(=O)N[C@H](C#N)Cc1ccc(-c2ccc(CN3CCN(C)CC3)cc2)cc1` [Compound 310]: the inhibition at 0.01 µM at human DPP1 enzyme [2] was at most 40%. The inhibition at 0.005 µM at DPP1 in HL-60 cells lay within 76.5 to 93.9%.
On to `CO[C@@H](CN(C)C)C(=O)N[C@H](C#N)Cc1ccc(-c2ccc3oc(=O)n(C)c3c2)cc1` [Compound 311], for which the inhibition at 0.01 µM on human DPP1 enzyme [2] is at most 40%. Moreover, at DPP1 in HL-60 cells, the inhibition at 0.005 µM fell in the range of 76.5 to 93.9%.
For `CO[C@@H](CN(C)C)C(=O)N[C@H](C#N)Cc1ccc(-c2ccc3c(n2)CCCN3)cc1` [Compound 312] the same measures were at most 40% and at most 76.5%.
The like results for `CO[C@@H](CN(C)C)C(=O)N[C@H](C#N)Cc1ccc(-c2ccc3c(c2)C2(CC3)CCN(C)CC2)cc1F` [Compound 313] were, in that order, at least 66.7% and at most 76.5%.
Regarding `CO[C@@H](CN(C)C)C(=O)N[C@H](C#N)Cc1ccc(-c2ccc3c(c2)C2(CCCN(C)C2)C(=O)N3C)cc1F` (stereo partly shown) [Compound 314], the inhibition at 0.01 µM on human DPP1 enzyme [2] fell in the range of 40 to 66.7%. The inhibition at 0.005 µM at DPP1 in HL-60 cells is at least 93.9%.
Turning to `CO[C@@H](CN(C)C)C(=O)N[C@H](C#N)Cc1ccc(-c2ccc3oc(=O)n(CCN(C)C)c3c2)cc1F` [Compound 315], at human DPP1 enzyme [2], the inhibition at 0.01 µM is at least 66.7%. Moreover, the inhibition at 0.005 µM at DPP1 in HL-60 cells is at most 76.5%.
Regarding `CN(C)C[C@H](O)C(=O)NC(C#N)Cc1cc2c(cc1F)-c1cc(C#N)ccc1CO2` (stereo partly shown) [Compound 340], the inhibition at 0.01 µM at human DPP1 enzyme [2] is at most 40%.
